Square brackets hold non-standard residues; d marks the D form. Ends that are not written are not given here.
Columns and labels:
[1] = cited from earlier work
[2] = Net charge and isoelectric point of peptide; assay type: physicochemical; details: pH 7
Excerpt: The peptide may be purified. For example, the peptide may be lyophilized. […] Other peptides are within the scope of the disclosure.
Exemplary peptides having a charge of +5 to +9 include […](d)[…], […](d)[…], and […](d)[…]. In other embodiments, the purified peptide may be substantially neutral. […] Net charge may be selected by peptide design. Design of electrostatic charge in the peptide hydrogel may allow control of charge interaction with cell membrane and proteins.

| Molecule | pKa [1] | net charge [2] |
| --- | --- | --- |
| O=C(O)C(F)(F)F [trifluoroacetic acid] | about 0 |  |
| VEVSVSVEVPPTEVSVEVEV (VEVSVSVEV[dP]PTEVSVEVEV) |  | net negative charge |

Reference: patent US20250009931A1 (GEL4MED, INC., priority 2021, published 2025)
